The NIST ThermoML archive (doi:10.1021/acs.jced.5b00752)
Several values for one entry are separate records, joined by “and”; a condition that tells them apart may be missing. Equal values may be shown once.

Conditions: Closed cell (Static) method

CCOC(=O)c1ccccc1C(=O)OCC [diethyl phthalate]
Liquid
Conditions	vapor or sublimation pressure
312.21 K	0.00032 kPa and 0.00035 kPa
322.21 K	0.00105 kPa and 0.00103 kPa
332.21 K	0.00269 kPa
342.19 K	0.00623 kPa
352.18 K	0.01358 kPa
352.2 K	0.01352 kPa
362.2 K	0.02775 kPa
372.19 K	0.05429 kPa
372.2 K	0.05407 kPa
372.22 K	0.05424 kPa
382.23 K	0.1008 kPa
392.24 K	0.1821 kPa
402.37 K	0.3169 kPa
412.38 K	0.5303 kPa
422.49 K	0.8621 kPa
442.28 K	2.082 kPa
452.12 K	3.099 kPa

[CH]1C=CC=C1.[CH]1C=CC=C1.[Fe] [ferrocene]
Conditions	vapor or sublimation pressure
312.2 K, Crystal	0.00369 kPa
312.21 K, Crystal	0.00359 kPa
322.21 K, Crystal	0.009 kPa and 0.00911 kPa
332.2 K, Crystal	0.02078 kPa
332.21 K, Crystal	0.02086 kPa and 0.02071 kPa
342.18 K, Crystal	0.04497 kPa and 0.04517 kPa
352.17 K, Crystal	0.0934 kPa [middle of 4 runs]
352.18 K, Crystal	0.09249 kPa and 0.09264 kPa and 0.09328 kPa
352.19 K, Crystal	0.0936 kPa
362.17 K, Crystal	0.1851 kPa and 0.185 kPa
362.18 K, Crystal	0.1854 kPa
372.2 K, Crystal	0.3543 kPa
382.19 K, Crystal	0.6508 kPa
392.2 K, Crystal	1.158 kPa
402.26 K, Crystal	2.001 kPa
402.31 K, Crystal	2.008 kPa
412.24 K, Crystal	3.346 kPa
412.32 K, Crystal	3.361 kPa
422.29 K, Crystal	5.47 kPa
422.4 K, Crystal	5.502 kPa
432.42 K, Crystal	8.756 kPa
442.26 K, Crystal	13.53 kPa
452.08 K, Liquid	19.48 kPa

c1ccc2ccccc2c1 [naphthalene]
Conditions	vapor or sublimation pressure
312.2 K, Crystal	0.04084 kPa and 0.04083 kPa
317.21 K, Crystal	0.06326 kPa
322.21 K, Crystal	0.09622 kPa
327.21 K, Crystal	0.1447 kPa
332.21 K, Crystal	0.2153 kPa
337.21 K, Crystal	0.315 kPa and 0.3154 kPa
342.19 K, Crystal	0.4556 kPa
347.19 K, Crystal	0.651 kPa
352.19 K, Crystal	0.9213 kPa
357.19 K, Liquid	1.2 kPa
362.2 K, Liquid	1.521 kPa
367.21 K, Liquid	1.915 kPa and 1.914 kPa
372.22 K, Liquid	2.393 kPa
377.22 K, Liquid	2.966 kPa and 2.967 kPa
382.22 K, Liquid	3.657 kPa
387.23 K, Liquid	4.475 kPa and 4.476 kPa
392.24 K, Liquid	5.45 kPa
397.27 K, Liquid	6.593 kPa and 6.596 kPa
402.37 K, Liquid	7.962 kPa
407.32 K, Liquid	9.502 kPa
412.4 K, Liquid	11.33 kPa
422.55 K, Liquid	15.88 kPa
432.58 K, Liquid	21.75 kPa
442.46 K, Liquid	29.18 kPa
452.37 K, Liquid	38.57 kPa

CC[N-]C.CC[N-]C.CC[N-]C.CC[N-]C.[Hf+4] [tetrakis(ethylmethylamino)hafnium]
Crystal
Conditions	vapor or sublimation pressure [kPa]
312.19 K	0.00296
322.2 K	0.00715
332.2 K	0.01587
342.18 K	0.03287
352.19 K	0.0644
362.19 K	0.121
372.21 K	0.216
382.21 K	0.37
392.24 K	0.591
